{
  "source": "patent US20260335277A1",
  "about": "“CHLOROTONIL DERIVATIVES” (priority 2023, published 2026)",
  "key": {"[1]": {"system": "E. faecalis ATCC-29212", "test": "MIC testing (broth microdilution, EUCAST)", "assay_type": "cell-based", "settings": "Enterococcus faecalis, ATCC29212, E. faecalis ATCC-29212", "method": "(§1) Minimal inhibitory concentration (MIC) of the compounds in the present invention was determined using broth microdilution performed according to EUCAST guidelines (ISO20776-1:2019). S. aureus ATCC29213 and E. faecalis ATCC29212 served as quality control strains."}, "[2]": {"system": "E. faecium DSM-17050 (vancomycin-resistant, VRE)", "test": "MIC testing (broth microdilution, EUCAST)", "assay_type": "cell-based", "settings": "Enterococcus faecium", "method": "as §1"}, "[3]": {"system": "E. faecium DSM-20477", "test": "MIC testing (broth microdilution, EUCAST)", "assay_type": "cell-based", "settings": "Enterococcus faecium, DSM20477, E. faecium DSM-20477", "method": "as §1"}, "[4]": {"system": "S. aureus N315 (methicillin-resistant, MRSA)", "test": "MIC testing (broth microdilution, EUCAST)", "assay_type": "cell-based", "settings": "Staphylococcus aureus, MRSA", "method": "as §1"}, "[5]": {"system": "S. aureus Newman", "test": "MIC testing (broth microdilution, EUCAST)", "assay_type": "cell-based", "method": "as §1"}, "[6]": {"system": "S. epidermidis DSM-28765", "test": "MIC testing (broth microdilution, EUCAST)", "assay_type": "cell-based", "settings": "Staphylococcus epidermidis, DSM28765, S. epidermidis DSM-28765; read-out: MIC S. epiderm.", "method": "as §1"}, "[7]": {"system": "mature gametocytes (stages IV and V)", "test": "Activity against mature gametocytes (stage IV-V), bioluminescence assay", "assay_type": "cell-based, P. falciparum", "method": "Activity against gametocytes was determined using an in vitro bioluminescence assay as described previously (doi.org/10.1371/journal.pone.0035019)."}, "[8]": {"system": "S. aureus Newman", "test": "MIC in presence of fetal bovine serum (FBS)", "assay_type": "cell-based", "settings": "for MIC: Staphylococcus aureus, NEWMAN, read-out: MIC against S. aureus Newman", "method": "as §1"}, "[9]": {"system": "E. faecium", "test": "MIC 50/90 profiling in multidrug-resistant clinical isolates", "assay_type": "cell-based", "method": "as §1\n(§2) Activity of dehalogenil against multidrug-resistant clinical isolates of S. aureus (n=100) and Enterococcus spp. […] Compared to the standard of care (linezolid, daptomycin and tigecyclin), dehalogenil MIC90 was lowered in both pathogens by 20-40-fold with unimodal distribution indicating no pre-existing resistances."}, "[10]": {"system": "clinical isolates of S. aureus", "test": "MIC 50/90 profiling in multidrug-resistant clinical isolates", "assay_type": "cell-based", "method": "as §1, §2"}, "[11]": {"system": "zebrafish larvae", "test": "Toxicity in zebrafish larvae (MTC / IC50)", "assay_type": "in vivo", "method": "For toxicity screening, zebrafish larvae were exposed three days post fertilization and monitored for 48 h until five days post fertilization. All malformations and pathophysiological phenotypes were noted and used to determine the inhibitory concentration (IC50) of the respective derivative against zebrafish larvae. The selectivity index (SI) was then calculated using the IC50 and the MIC of either S. aureus or P. falciparum 3D7."}, "[12]": {"test": "Aqueous solubility", "assay_type": "physicochemical", "settings": "for solubility thermodynamic: read-out: semi thermodynamic solubility", "method": "(§3) Complementing the toxicity profiling, ADME properties of the lead dehalogenil were determined. This had not been possible for the first generation frontrunner ChB1-Epo2 or the natural product ChA because of their poor limit of detection. […] Across species (mouse, rat, human), metabolic stability is high while plasma stability is moderate. Besides, no hemolysis and no inhibition of the metabolically important enzyme CYP3A4 was observed by both dehalogenil and ChA. Plasma protein binding (PPB) is >99.4% in all species."}, "[13]": {"test": "Plasma protein binding (PPB)", "assay_type": "in vitro ADME, rat", "method": "as §3"}, "[14]": {"test": "Inhibition of CYP3A4", "assay_type": "in vitro ADME", "settings": "cyp3a4", "method": "as §3"}, "[15]": {"system": "CYP3A4", "test": "Inhibition of CYP3A4", "assay_type": "in vitro ADME", "method": "as §3"}, "[16]": {"system": "S. aureus", "test": "Murine foreign body (catheter) infection model", "assay_type": "in vivo, mouse", "method": "In a murine model, infected catheter tubings were implanted under the rodent skin followed by subcutaneous treatment (once per day with 25 mg/kg for six days).\nThe infection was established using a bacterial inoculum of 1×10^4 colony-forming units (CFU) injected into the lumen of the implanted peripheral venous catheter tubing fragment. Dehalogenil (25 mg/kg) was administered s.c. once per day, starting at 3 h post infection. Linezolid (Zyvoxid, Pfizer) was used as a reference antibiotic. Six days post infection, mice were euthanized, edema sizes around the implanted catheter fragment determined (c), and the catheter fragments and surrounding tissues were explanted. Bacterial loads from catheter detached biofilms (a) and in surrounding tissue homogenates (b) were determined by CFU counting. The data represent the value of every individual animal (symbols) and the median (horizontal lines). […], **p<0.01, ***p<0.001 (Kruskal-Wallis tests followed by Dunn's post hoc test)."}, "[17]": {"system": "S. aureus USA300LAC", "test": "S. aureus blood infection (sepsis) model", "assay_type": "in vivo, mouse (CD-1)", "settings": "for survival: BID, until 3 days post infection", "method": "Dehalogenil was further tested in a Staphylococcus blood infection (sepsis) model, alongside linezolid as reference compound. Mice were infected using S. aureus USA300LAC (10^8 CFU/animal) and subsequently treated with a daily total of 5, 10 or 25 mg/kg SC dehalogenil, split into two doses (8 h interval, BID regimen) until 3 days post infection.\nMice were infected intravenously using S. aureus USA300LAC (10^8 CFU/mice). Compounds were administered twice daily starting day 0 until day 3, with the daily total dose indicated. Curves were compared via Mantel-Cox test (Prism), with ***: p<0.001 and **: p<0.01."}, "[18]": {"system": "P. berghei", "test": "P. berghei parasite load in mice", "assay_type": "in vivo, mouse"}, "[19]": {"test": "Activity compared with chlorotonil A (general statement)", "settings": "vs chlorotonil A"}, "[20]": {"settings": "Enterococcus faecium, E. faecium (n = 98)"}, "[21]": {"settings": "Staphylococcus aureus, S. aureus clinical isolates (n = 100)"}, "[22]": {"settings": "25 mg/kg SC once per day, six days"}},
  "note": "Values joined by “and” are separate entries in the source; they are usually repeats but may differ in a detail not shown here. Equal entries are not always repeated. “Also recorded” adds a separate entry of the source. Where two headings read alike, the source gives them in different places.",
  "data": [
    {"smiles": "CC1=CC(C)C2C(C=CC3C(C)C=CC=CC(C)OC(=O)C(C)C(=O)CC(=O)C32)C1", "note": "(centres unmarked) [dehalogenil]", "values": [
      {"measurement": "MIC", "setting": "[1]", "value": 0.1, "unit": "mg/L"},
      {"measurement": "MIC", "setting": "[2]", "value": 0.1, "unit": "mg/L"},
      {"measurement": "MIC", "setting": "[3]", "value": 0.025, "unit": "mg/L"},
      {"measurement": "MIC", "setting": "[4]", "value": 0.05, "unit": "mg/L"},
      {"measurement": "MIC S. aureus", "setting": "[5]", "value": 0.05, "unit": "mg/L"},
      {"measurement": "MIC", "setting": "[6]", "value": 0.2, "unit": "mg/L"},
      {"measurement": "IC50", "setting": "[7]", "value": 0.0058, "unit": "µM"},
      {"measurement": "MIC", "setting": "[8]; MHB2 + 5% FBS", "value": 2, "unit": "mg/L"},
      {"measurement": "MIC", "setting": "[8]; MHB2 + 10% FBS", "value": 4, "unit": "mg/L"},
      {"measurement": "MIC", "setting": "[8]; MHB2 + 20% FBS", "value": 4, "unit": "mg/L"},
      {"measurement": "MIC", "setting": "[8]; MHB2 + 30% FBS", "value": 8, "unit": "mg/L"},
      {"measurement": "MIC", "setting": "[8]; MHB2 + 40% FBS", "value": 8, "unit": "mg/L"},
      {"measurement": "MIC", "setting": "[8]; MHB2 + 50% FBS", "value": "> 8", "unit": "mg/L"},
      {"measurement": "MIC", "setting": "[8]; MHB2, no FBS", "value": 0.0625, "unit": "mg/L"},
      {"measurement": "Activity in presence of FBS", "setting": "[8]; above 20% FBS", "value": "remained active above 20% FBS"},
      {"measurement": "MIC", "setting": "[9]; Enterococcus faecium, read-out: MIC range", "value": "0.00625 to 0.2", "unit": "mg/L"},
      {"measurement": "MIC50", "setting": "[9]; [20]", "value": 0.025, "unit": "mg/L"},
      {"measurement": "MIC90", "setting": "[9]; [20]", "value": 0.1, "unit": "mg/L"},
      {"measurement": "MIC90 lowered compared to standard of care", "setting": "[9]; vs linezolid, daptomycin and tigecyclin, Enterococcus spp. (n=98)", "value": "20-40 fold"},
      {"measurement": "MIC", "setting": "[10]; [21]", "value": "0.025 to 0.4", "unit": "mg/L"},
      {"measurement": "MIC50", "setting": "[10]; [21]", "value": 0.1, "unit": "mg/L"},
      {"measurement": "MIC90", "setting": "[10]; [21]", "value": 0.2, "unit": "mg/L"},
      {"measurement": "MIC90 lowered compared to standard of care", "setting": "[10]; vs linezolid, daptomycin and tigecyclin, S. aureus (n=100)", "value": "20-40 fold"},
      {"measurement": "toxic effects in zebrafish", "setting": "[11]; 5-10 μg/mL", "value": "no toxic effects"},
      {"measurement": "IC50 in zebrafish larvae", "setting": "[11]; exposed 3 days post fertilization, monitored 48 h", "value": 27.4, "unit": "µM"},
      {"measurement": "Selectivity Index S. aureus", "setting": "[11]; zebrafish IC50 / MIC S. aureus Newman", "value": 224.8},
      {"measurement": "Selectivity Index P. falc 3D7", "setting": "[11]; zebrafish IC50 vs P. falciparum 3D7", "value": 5479.6},
      {"measurement": "solubility thermodynamic", "setting": "[12]; pH 5.0", "value": "34.9 ± 2.7", "unit": "µM"},
      {"measurement": "solubility thermodynamic", "setting": "[12]; pH 7.4", "value": "41.4 ± 10.3", "unit": "µM"},
      {"measurement": "Solubility increase compared to the natural product ChA", "setting": "[12]; pH 7.4, vs ChA", "value": "more than 500 fold"},
      {"measurement": "solubility thermodynamic", "setting": "[12]; pH 9.0", "value": "16.5 ± 8.7", "unit": "µM"},
      {"measurement": "Solubility compared to ChB1-Epo2", "setting": "[12]; vs ChB1-Epo2, aqueous", "value": "more than doubled; also recorded: doubled aqueous solubility"},
      {"measurement": "fraction unbound", "setting": "[13]; plasma, all species: rat", "value": "< 0.006"},
      {"measurement": "plasma protein binding", "setting": "[13]; rat", "value": ">99.4", "unit": "%"},
      {"measurement": "IC50", "setting": "[14]", "value": 16.4, "unit": "µM"},
      {"measurement": "inhibition of CYP3A4", "setting": "[15]", "value": "no inhibition"},
      {"measurement": "reduction in bacterial loads in the tissues surrounding the catheter fragments", "setting": "[16]; [22]", "value": "> 3 log10 and 3.24 log10"},
      {"measurement": "reduction in bacterial loads on the catheter fragments", "setting": "[16]; [22]", "value": "> 3 log10 and 3.85 log10"},
      {"measurement": "bacterial load at the site of infection and on the implant", "setting": "[16]; 6×25 mg/kg SC", "value": "significantly reducing bacterial loads"},
      {"measurement": "survival", "setting": "[17]; 10 mg/kg daily total SC", "value": 80, "unit": "%"},
      {"measurement": "survival", "setting": "[17]; 25 mg/kg daily total SC", "value": 90, "unit": "%"},
      {"measurement": "survival rates compared to linezolid", "setting": "[17]; 10 and 25 mg/kg SC vs linezolid 60 mg/kg", "value": "increased survival rates comparable to a higher dose of linezolid"},
      {"measurement": "reduction of P. berghei parasite load", "setting": "[18]", "value": "> 99", "unit": "%"},
      {"measurement": "activity compared to chlorotonil A", "setting": "[19]", "value": "activity similar to chlorotonil A"}
    ]}
  ]
}
